Where two headings read alike, the source gives them in different places.
Columns and labels:
Format in all cases: cell-based
[1] = system: gastric cancer cell line NCI-N87; assay: MTT assay of cellular proliferation, NCI-N87; conditions: Homo sapiens, read-out: EC50: Concentration that inhibits 50% of proliferation
Outline: (§1)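 Proliferation inhibition was scored by MTT reduction to formazan (A570) in cells cultured in 5% FBS DMEM at 37 °C. Dose range spanned 1 nM to 10 μM, with EC50 defined as 50% inhibition.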

[2] = system: liver cancer cell line T2 HCC; assay: Minimal effective concentration that elicits polyploidy, T2 HCC; conditions: Mus musculus, read-out: MECP: Minimal effective concentration that elicits polyploidy
[3] = system: breast cancer cell line MDA-MB-231; assay: MTT assay of cellular proliferation, MDA-MB-231; conditions: Homo sapiens, read-out: EC50: Concentration that inhibits 50% of proliferation
Outline: as §1

[4] = system: colon cancer cell line HCT116; assay: Minimal effective concentration that elicits polyploidy, HCT116; conditions: Homo sapiens, HCT-116, read-out: MECP: Minimal effective concentration that elicits polyploidy
RPEMYC^H2B-GFP cells [5] = assay: Mechanism-informed phenotypic screening assay (mitotic arrest, polyploidy; GE IN-Cell Analyzer 2000); conditions: 20 nM to 20 μM, 24, 48 or 72 hours, read-out: Mitotic Arrest (≥5%)
[6] = system: lung cancer cell line A549; assay: Minimal effective concentration that elicits polyploidy, A549; conditions: Homo sapiens, read-out: MECP: Minimal effective concentration that elicits polyploidy
[7] = system: cervical cancer cell line Hela; assay: Minimal effective concentration that elicits polyploidy, Hela; conditions: Homo sapiens, read-out: MECP: Minimal effective concentration that elicits polyploidy
[8] = system: lung cancer cell line A549; assay: MTT assay of cellular proliferation, A549; conditions: Homo sapiens, read-out: EC50: Concentration that inhibits 50% of proliferation
Outline: as §1

[9] = system: lung cancer cell line NCI-H23; assay: Minimal effective concentration that elicits polyploidy, NCI-H23; conditions: Homo sapiens, read-out: MECP: Minimal effective concentration that elicits polyploidy
[10] = system: gastric cancer cell line NCI-N87; assay: Minimal effective concentration that elicits polyploidy, NCI-N87; conditions: Homo sapiens, read-out: MECP: Minimal effective concentration that elicits polyploidy
[11] = system: colon cancer cell line SW460; assay: MTT assay of cellular proliferation, SW460; conditions: Homo sapiens, SW480; read-out: EC50: Concentration that inhibits 50% of proliferation
Outline: as §1

[12] = system: lung cancer cell line NCI-H23; assay: MTT assay of cellular proliferation, NCI-H23; conditions: Homo sapiens, read-out: EC50: Concentration that inhibits 50% of proliferation
Outline: as §1

[13] = system: breast cancer cell line MDA-MB-231; assay: Minimal effective concentration that elicits polyploidy, MDA-MB-231; conditions: Homo sapiens, read-out: MECP: Minimal effective concentration that elicits polyploidy
[14] = system: colon cancer cell line HCT116; assay: MTT assay of cellular proliferation, HCT116; conditions: Homo sapiens, HCT-116, read-out: EC50: Concentration that inhibits 50% of proliferation
Outline: as §1

SW480 = assay: Minimal effective concentration that elicits polyploidy, SW480; conditions: Homo sapiens, read-out: MECP: Minimal effective concentration that elicits polyploidy
[15] = system: cervical cancer cell line Hela; assay: MTT assay of cellular proliferation, Hela; conditions: Homo sapiens, read-out: EC50: Concentration that inhibits 50% of proliferation
Outline: as §1

RPEMYC^H2B-GFP cells [16] = assay: Mechanism-informed phenotypic screening assay (mitotic arrest, polyploidy; GE IN-Cell Analyzer 2000); conditions: 20 nM to 20 μM, 24, 48 or 72 hours, read-out: Min. Effective conc. for polyploidy (≥5%)
Outline: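 RPEMYC^H2B-GFP cells expressing Histone 2B-EGFP were treated with compounds at 20 nM to 20 μM. Mitotic arrest and DNA content were imaged at 24, 48 or 72 h. Minimal effective concentrations eliciting polyploidy are given as letter bins.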

[17] = system: liver cancer cell line T2 HCC; assay: MTT assay of cellular proliferation, T2 HCC; conditions: Mus musculus, read-out: EC50: Concentration that inhibits 50% of proliferation
Outline: as §1

| SMILES | EC50 [1] [nM] | minimal effective concentration [2] [µM] | EC50 [3] [nM] | minimal effective concentration [4] [µM] | minimal effective concentration (RPEMYC^H2B-GFP cells [5]) [µM] | minimal effective concentration [6] [µM] | minimal effective concentration [7] [µM] | EC50 [8] [nM] | minimal effective concentration [9] [µM] | minimal effective concentration [10] [µM] | EC50 [11] [nM] | EC50 [12] [nM] | minimal effective concentration [13] [µM] | EC50 [14] [nM] | minimal effective concentration (SW480) [µM] | EC50 [15] [nM] | minimal effective concentration (RPEMYC^H2B-GFP cells [16]) [µM] | EC50 [17] [nM] |
| --- | --- | --- | --- | --- | --- | --- | --- | --- | --- | --- | --- | --- | --- | --- | --- | --- | --- | --- |
| COc1cc(NC(C)=O)cc(Oc2ncccc2-c2ccnc(C)c2)c1 [Compound 43, N-(3-methoxy-5-((2′-methyl-[3,4′-bipyridin]-2-yl)oxy)phenyl)acetamide] | 1 to 1000 | 0.001 to 1 | 1 to 1000 | 0.001 to 1 | 1 | 0.001 to 1 | 0.001 to 1 | 1 to 1000 | 0.001 to 1 | 0.001 to 1 | 1 to 1000 | 1 to 1000 | 0.001 to 1 | 1 to 1000 | 0.001 to 1 | 1 to 1000 | 1 | 1 to 1000 |
| CNC(=O)c1cc(OC)cc(Oc2ncccc2-c2ccnc(Cl)c2)c1 [Compound 45, 3-((2′-chloro-[3,4′-bipyridin]-2-yl)oxy)-5-methoxy-N-methylbenzamide] | 1 to 1000 | 0.001 to 1 | 1 to 1000 | 0.001 to 1 | 1 | 0.001 to 1 | 0.001 to 1 | 1 to 1000 | 0.001 to 1 | 0.001 to 1 | 1 to 1000 | 1 to 1000 | 0.001 to 1 | 1 to 1000 | 0.001 to 1 | 1 to 1000 | 1 | 1 to 1000 |
| COc1cc(NC(C)=O)cc(Oc2ncccc2-c2ccnc(Cl)c2)c1 [Compound 46, N-(3-((2′-chloro-[3,4′-bipyridin]-2-yl)oxy)-5-methoxyphenyl)acetamide] | 1 to 1000 | 0.001 to 1 | 1 to 1000 | 0.001 to 1 | 1 | 0.001 to 1 | 0.001 to 1 | 1 to 1000 | 0.001 to 1 | 0.001 to 1 | 1 to 1000 | 1 to 1000 | 0.001 to 1 | 1 to 1000 | 0.001 to 1 | 1 to 1000 | 1 | 1 to 1000 |
| COC(=O)c1cc(OC)cc(Oc2nccnc2-c2cccnc2)c1 [Compound 52, methyl 3-methoxy-5-((3-(pyridin-3-yl)pyrazin-2-yl)oxy)benzoate] | 1 to 1000 | 0.001 to 1 | 1 to 1000 | 0.001 to 1 | 1 | 0.001 to 1 | 0.001 to 1 | 1000 to 10000 | 0.001 to 1 | 0.001 to 1 | 1 to 1000 | 1 to 1000 | 0.001 to 1 | 1 to 1000 | 0.001 to 1 | 1 to 1000 | 1 | 1 to 1000 |
| COc1cc(OC)cc(Oc2ncccc2-c2cc(C)ncn2)c1 [Compound 63, 4-(2-(3,5-dimethoxyphenoxy)pyridin-3-yl)-6-methylpyrimidine] | 1 to 1000 | 0.001 to 1 | 1 to 1000 | 0.001 to 1 | 1 | 0.001 to 1 | 0.001 to 1 | 1 to 1000 | 0.001 to 1 | 0.001 to 1 | 1 to 1000 | 1 to 1000 | 0.001 to 1 | 1 to 1000 | 0.001 to 1 | 1 to 1000 | 1 | 1 to 1000 |
